Source: patent publication US12018327B2, “Methods and compositions relating to epoxide hydrolase genes” (The Regents of the University of California, priority 2018, dated 2024)

Legend:
PPARγ = assay: PPARγ-activated luciferase reporter assay in Raw264.7 cells; assay type: cell-based; conditions: 24 hours after treatment
Protocol: A modified PPARγ luciferase assay was performed as described in Ye et. al.. A PPRE-luciferase reporter plasmid, PPRE X3-TK-luc from Bruce Spiegelman (Plasmid #1015; Addgene, Cambridge, MA), and a PPARγ overexpression plasmid, pGST-PPARgamma from Bert Vogelstein (Plasmid #16549; Addgene, Cambridge, MA), were ordered from Addgene and purified with the Plasmid Plus Maxi Kit (Qiagen, Germantown, MD). Raw264.7 cells grown in R10 media (Roswell Park Memorial Institute (RPMI) media 1640 with 10% heat-inactivated Fetal Bovine SerμMand 2 mM L-glutamine and 100 U mL^−1 penicillin—streptomycin) were transfected with the PPRE-reporter, PPARγ, and Renilla luciferase plasmid DNA in a 1:20:40 ratio, using 50 ng/well of reporter plasmid DNA. Fugene HD Transfection reagent (Promega, Madison, WI) was combined with plasmid DNA in a 4:1 ratio, and the total volume was brought to 5 μL/well with RPMI. The transfection mixture was gently combined with dilute Raw264.7 cells and plated in black, clear-bottom, 96-well plates at a density of 50,000 cells per well. […] Twenty-four hours after treatment luciferase and Renilla luminescence were measured using the Dual-Glo Luciferase Assay kit (Promega, Madison, WI) on a Cytation 3 plate reader (BioTek Instruments, Winooski, VT).

CRA-challenged mice = assay: Cockroach antigen (CRA) airway sensitization and challenge model; assay type: in vivo; conditions: for frequency of lung resident alveolar macrophages (CD11c+CD11b+F4/80+Siglec-F+): compared to vehicle treated
Protocol: Six-week-old female C57B6 mice were obtained from Jackson Laboratories (Sacramento, CA). Mice were treated on days 1, 2, 3, 14, and 21 with 30 mg kg^−1 12,13 DiHOME solubilized in 10% DMSO or vehicle (10% DMSO) by peritoneal injection. Three hours after injection, mice were challenged intra-tracheally with either PBS or CRA (20,000 PNU mL^−1; Greer, Lenoir, NC). Twenty-four hours after the final challenge mice were anesthetized, injected retro-orbitally with 100 μL CD45-APC (1:10), allowed to recover from anesthesia, and subsequently sacrificed. Lungs and plasma were collected. Serum was isolated, and serum IgE levels were measured using a Mouse IgE ELISA Max kit (Biolegend, San Diego, CA).
Lungs were sent to the Mouse Pathology Core at UCSF for H&E staining of paraffin-embedded tissue sections. Two bronchioles and two vessels from each stained tissue section were scored on a 0-4 scale with 0, representing structures with no inflammatory infiltrates; 1, representing few inflammatory cells; 2, representing a ring 1 cell-layer wide; 3, representing a ring 2-4 cells wide; and 4, representing a ring of inflammatory cells more than 4 cells wide. Each structure was scored by two blinded-individuals, and scores were averaged for each animal. Cell counts were determined for each structure. In brief, the ImageJ freehand selection tool was used to trace the perimeter of each bronchiole and vessel. The area extending beyond the perimeter of the vessel was cleared, and the color threshold of the image was adjusted using the default method with the following parameters: hue=0-255, saturation=0-255, brightness=130-255, threshold color=white, background=dark, color space=HSB. The image was converted to an 8-bit grey scale, and the threshold was adjusted using the B&W defaults and a range of 0-150. Counts were outlined and summarized using the analyze particles window (size=0-infinity, circularity=0.0-1.00).
Lung cell subsets were assessed by flow cytometry. Lung tissue was manually dissected, digested with 5 mg per sample collagenase (Sigma-Aldrich, St. Louis, MO), and passed through a […] filter to generate single cell suspensions. […] Gating strategy can be found in FIG. 5C. Regulatory T cells were identified as CD3+CD4+CD25+FoxP3+ cells. The human T cell gating strategy was also applied to mouse lungs. A representative flow plot can be found in FIG. 5D.
Lung tissue was preserved in RNAlater (Ambion, Foster City, CA). Preserved lung tissue was homogenized in Lysing Matrix E Tubes using a FastPrep 24 Homogenizer (MP Biomedicals, Santa Ana, CA) and extracted using an RNAeasy Mini Kit (Qiagen, Germantown, MD). qPCR was performed on lung tissue, as described above, to evaluate expression of IL1α, IL1β, and TNF relative to GAPDH.

[1] = Quantification of 12,13 DiHOME in lungs and plasma by LC-MS after peritoneal injection; assay type: in vivo, mice; conditions: 30 mg kg^−1 peritoneal, vs vehicle
Protocol: For quantification of 12,13 DiHOME in the lungs and plasma, six-week-old female C57B6 mice were purchased from Jackson Laboratories (Sacramento, CA) and treated with 30 mg kg^−1 12,13 DiHOME solubilized in 10% DMSO or vehicle (10% DMSO) by peritoneal injection. Three hours after a single injection mice were sacrificed, and lung tissue and plasma were collected and frozen immediately in liquid nitrogen. 12,13 DiHOME was extracted from tissue and plasma using an established solid phase extraction protocol. In brief, flash frozen tissue was massed and added to a Lysing Matrix E Tube (MP Biomedicals, Santa Ana, CA) containing 1 mL of methanol, 10 μL 0.2 mg mL^−1 BHT/EDTA, and 1.25 ng 12,13 DiHOME-D4 (Cayman Chemical, Ann Arbor, MI) then homogenized as described above. Tissue samples were spun for 10 minutes at 2125×g, and supernatant was transferred to a falcon tube containing 19 mL deionized water to generate a 5% methanol solution. Plasma samples were thawed on ice, and 10 μL 0.2 mg mL^−1 BHT/EDTA and 1.25 ng 12,13 DiHOME-D4 were added to 250 μL of thawed plasma. All samples were extracted using a Waters Oasis HLB Cartridges (60 mg of sorbent, […] particle size; Waters, Milford, MA) as previously described. […]

[2] = target: transient receptor potential vanilloid 1 (TRPV1) (Homo sapiens, UniProt Q8NER1); conditions: ref [15]; cited from earlier work
[3] = 30 mg kg^−1 peritoneal, CRA-challenged, vs vehicle treated PBS or CRA challenged
[4] = CRA challenged, vs vehicle treated PBS or CRA challenged
[5] = CRA-challenged, vs vehicle treated PBS or CRA challenged
[6] = H&E lung sections, 0-4 scale, vs vehicle treated PBS or CRA challenged

Sequence of transient receptor potential vanilloid 1 (TRPV1) (Q8NER1 whole entry, species assumed): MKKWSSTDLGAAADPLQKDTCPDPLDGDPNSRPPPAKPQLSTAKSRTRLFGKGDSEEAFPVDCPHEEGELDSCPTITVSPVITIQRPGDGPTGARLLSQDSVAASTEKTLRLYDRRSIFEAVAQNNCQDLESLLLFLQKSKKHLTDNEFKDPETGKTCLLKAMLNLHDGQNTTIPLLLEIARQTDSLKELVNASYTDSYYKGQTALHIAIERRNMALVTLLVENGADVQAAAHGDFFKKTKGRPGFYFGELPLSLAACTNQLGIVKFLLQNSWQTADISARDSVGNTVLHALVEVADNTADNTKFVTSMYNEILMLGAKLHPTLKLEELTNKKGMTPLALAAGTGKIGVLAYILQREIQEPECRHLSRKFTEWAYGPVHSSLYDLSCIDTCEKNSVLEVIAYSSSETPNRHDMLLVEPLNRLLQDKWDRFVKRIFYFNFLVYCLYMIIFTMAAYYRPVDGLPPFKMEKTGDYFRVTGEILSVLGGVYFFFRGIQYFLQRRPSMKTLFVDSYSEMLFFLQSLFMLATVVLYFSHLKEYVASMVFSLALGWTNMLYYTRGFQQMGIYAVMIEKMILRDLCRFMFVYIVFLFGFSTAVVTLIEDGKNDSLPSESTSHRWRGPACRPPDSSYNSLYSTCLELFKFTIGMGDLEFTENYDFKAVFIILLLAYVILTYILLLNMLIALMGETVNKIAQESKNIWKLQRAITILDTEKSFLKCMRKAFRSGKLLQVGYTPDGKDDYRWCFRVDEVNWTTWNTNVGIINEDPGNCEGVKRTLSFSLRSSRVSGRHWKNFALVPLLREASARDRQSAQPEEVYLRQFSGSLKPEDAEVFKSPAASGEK

SMILES: CCCCCC(O)C(O)C/C=C\CCCCCCCC(=O)O (centres unmarked) [12,13 DiHOME]
- concentrations that lead to PPARγ activation (PPARγ): > 50 µM
- expression of IL1β in lung (CRA-challenged mice; [3]): increased
- frequency of lung resident T cells (CD3+) (CRA-challenged mice; [3]): increased
- number of infiltrating cells surrounding the bronchioles (CRA-challenged mice; [3]): increased
- number of infiltrating cells surrounding the veins (CRA-challenged mice; [3]): increased
- lung Treg frequency (CRA-challenged mice; 30 mg kg^−1 peritoneal, CRA-challenged, vs vehicle-treated CRA-challenged): decreased
- serum IgE (CRA-challenged mice; 30 mg kg^−1 peritoneal, vs CRA-challenged and PBS-challenged animals): increased
- expression of IL1α in lung (CRA-challenged mice; [4]): increased
- expression of TNF in lung (CRA-challenged mice; [4]): increased
- frequency of live resident cells in the lungs (CRA-challenged mice; [5]): did not increase
- frequency of lung resident monocytes (F4-80+Ly6C+Ly6G-CD11b+) (CRA-challenged mice; [5]): significantly increased
- frequency of lung resident neutrophils (Ly6G+CD11b+) (CRA-challenged mice; [5]): significantly increased
- frequency of resident lung cells (CRA-challenged mice; [5]): decreased
- peribronchial inflammation score (CRA-challenged mice; [6]): increased
- perivascular inflammation score (CRA-challenged mice; [6]): increased
- frequency of lung resident alveolar macrophages (CD11c+CD11b+F4/80+Siglec-F+) (CRA-challenged mice; CRA challenged animals): decreased
- frequency of lung resident alveolar macrophages (CD11c+CD11b+F4/80+Siglec-F+) (CRA-challenged mice; PBS challenged animals): increased
- concentration of 12,13 DiHOME in the lungs ([1]; 3 hours post-delivery): significantly increased
- concentration of 12,13 DiHOME in the plasma ([1]; three hours after injection): significantly increased
- action on TRPV1 [2]: activator
